ChEMBL document CHEMBL6127014, “Repurposing antiplasmodial leads for cancer: Exploring the antiproliferative effects of N-cinnamoyl-aminoacridines” (Bioorg Med Chem Lett, 2024)
Calls of active or inactive are those of the source. The rule behind the calls is not given here.

How the values were obtained:
[1] = Cytotoxicity against HDF cells assessed as reduction in cell viability at 12.5 to 25 uM incubated for 24 hrs by MTT assay; assay type: toxicity, cell-based; conditions: human, dose 12.5-25 µM
[2] = tested on: MKN-28; experiment: Cytotoxicity against human MKN-28 cells assessed as reduction in cell viability at 12.5 to 25 uM incubated for 24 hrs by MTT assay; assay type: functional, cell-based; conditions: dose 12.5-25 µM
[3] = tested on: HepG2; experiment: Antiproliferative activity against human HepG2 cells assessed as inhibition of cell growth incubated for 24 hrs by Alamar blue assay; assay type: functional, cell-based; conditions: HepG2, 24 h
[4] = tested on: Huh-7; experiment: Antiproliferative activity against human Huh-7 cells assessed as inhibition of cell growth incubated for 24 hrs by Alamar blue assay; assay type: functional, cell-based; conditions: Huh-7, 24 h
[5] = tested on: MKN-28; experiment: Antiproliferative activity against human MKN-28 cells assessed as inhibition of cell growth incubated for 2 days by SRB assay; assay type: functional, cell-based; conditions: MKN-28, 48 h
[6] = Selectivity index, ratio of IC50 for cytotoxicity against HDF cells to IC50 for antiproliferative activity against human MKN-28 cells; assay type: toxicity, cell-based; conditions: HDF cells versus MKN-28 cells, read-out: Ratio IC50
[7] = Selectivity index, ratio of IC50 for cytotoxicity against HDF cells to IC50 for antiproliferative activity against human Huh-7 cells; assay type: toxicity, cell-based; conditions: HDF cells versus Huh-7 cells, read-out: Ratio IC50
[8] = Cytotoxicity against HDF cells assessed as reduction in cell viability at 12.5 to 50 uM incubated for 24 hrs by MTT assay; assay type: toxicity, cell-based; conditions: human, dose 12.5-50 µM
[9] = Selectivity index, ratio of IC50 for cytotoxicity against HDF cells to IC50 for antiproliferative activity against human HepG2 cells; assay type: toxicity, cell-based; conditions: HDF cells versus HepG2 cells, read-out: Ratio IC50
[10] = Cytotoxicity against HDF cells assessed as inhibition of cell growth incubated for 24 hrs by MTT assay; assay type: toxicity, cell-based; conditions: human
[11] = tested on: MKN-28; experiment: Antiproliferative activity against human MKN-28 cells assessed as inhibition of cell growth incubated for 24 hrs by MTT assay; assay type: functional, cell-based; conditions: MKN-28, 24 h
[12] = tested on: MKN-28; experiment: Cytotoxicity against human MKN-28 cells assessed as reduction in cell viability at 12.5 to 50 uM incubated for 24 hrs by MTT assay; assay type: functional, cell-based; conditions: dose 12.5-50 µM

SMILES | Activity [1] | Activity [2] | IC50 [3] [µM] | IC50 [4] [µM] | IC50 [5] [µM] | selectivity ratio [6] | selectivity ratio [7] | Activity [8] | selectivity ratio [9] | IC50 at 24 h [10] [µM] | IC50 [11] [µM] | Activity [12]
COc1cc(NCCCCNC(=O)/C=C/c2ccc([N+](=O)[O-])cc2)c2nc3cc(Cl)ccc3cc2c1 | Non-Toxic | inactive |  |  |  |  |  |  |  |  |  | 
COc1cccc2c1C(=O)c1c(O)c3c(c(O)c1C2=O)C[C@@](O)(C(=O)CO)C[C@@H]3O[C@H]1C[C@H](N)[C@H](O)[C@H](C)O1 [DOXORUBICIN] |  |  | 0.425 | 6.05 | 0.34 |  |  |  |  |  |  | 
COc1cc(NCCCCNC(=O)/C=C/c2ccc(OC)c(OC)c2)c2nc3cc(Cl)ccc3cc2c1 | Non-Toxic | inactive |  |  |  |  |  |  |  |  |  | 
CCN(CC)CCCC(C)Nc1c2ccc(Cl)cc2nc2c(NCCCCNC(=O)/C=C/c3ccc(OC)cc3)cc(OC)cc12 (stereo not drawn) |  |  | 3.33 | 12.1 |  | > 3.6 | > 4.1 | Non-Toxic | > 15 | > 50 | 13.7 | Active
CCN(CC)CCCNc1c2ccc(Cl)cc2nc2c(NCCCCNC(=O)/C=C/c3ccc(OC)cc3)cc(OC)cc12 |  |  | 5.38 | 12.4 |  | > 3.2 | > 4 | Non-Toxic | > 9.3 | > 50 | 15.5 | Active
COc1cc(NCCCCNC(=O)/C=C/c2cccc(F)c2)c2nc3cc(Cl)ccc3cc2c1 | Non-Toxic | inactive |  |  |  |  |  |  |  |  |  | 
COc1cc(NCCCCNC(=O)/C=C/c2ccc(C)cc2)c2nc3cc(Cl)ccc3cc2c1 | Non-Toxic | inactive |  |  |  |  |  |  |  |  |  | 
CCN(CC)CCCNc1c2ccc(Cl)cc2nc2c(NCCCCNC(=O)/C=C/c3ccccc3)cc(OC)cc12 |  |  | 4.11 | 12.1 |  | > 3.2 | > 4.1 | Non-Toxic | > 12.2 | > 50 | 15.4 | Active
CCN(CC)CCCC(C)Nc1c2ccc(Cl)cc2nc2c(NCCCCNC(=O)/C=C/c3ccccc3)cc(OC)cc12 (stereo not drawn) |  |  | 4.17 | 7.26 |  | > 5 | > 6.9 | Non-Toxic | > 12 | > 50 | 10 | Active
COc1cc(NCCCCNC(=O)/C=C/c2ccccc2)c2nc3cc(Cl)ccc3cc2c1 | Non-Toxic | inactive |  |  |  |  |  |  |  |  |  | 
CCN(CC)CCCNc1c2ccc(Cl)cc2nc2c(NCCCCNC(=O)/C=C/c3ccc(F)cc3)cc(OC)cc12 |  |  | 6.32 | 11.2 |  | > 4.1 | > 4.5 | Non-Toxic | > 7.9 | > 50 | 12.2 | Active
CCN(CC)CCCC(C)Nc1c2ccc(Cl)cc2nc2c(NCCCCNC(=O)/C=C/c3ccc(F)cc3)cc(OC)cc12 (stereo not drawn) |  |  | 7.64 | 12.4 |  | > 4 | > 4 | Non-Toxic | > 6.5 | > 50 | 12.5 | Active
COc1cc(NCCCCNC(=O)/C=C/c2ccc(C(C)C)cc2)c2nc3cc(Cl)ccc3cc2c1 | Non-Toxic | inactive |  |  |  |  |  |  |  |  |  | 
COc1cc(NCCCCNC(=O)/C=C/c2ccc(F)cc2)c2nc3cc(Cl)ccc3cc2c1 | Non-Toxic | inactive |  |  |  |  |  |  |  |  |  | 
CCN(CC)CCCC(C)Nc1c2ccc(Cl)cc2nc2ccc(OC)cc12 (stereo not drawn) [QUINACRINE] |  |  | 4.48 | 8.7 | 2.46 |  |  |  |  |  |  | 
CNc1ccc(/C=C/C(=O)NCCCCNc2cc(OC)cc3cc4ccc(Cl)cc4nc23)cc1 | Non-Toxic | inactive |  |  |  |  |  |  |  |  |  | 
CCN(CC)CCCNc1c2ccc(Cl)cc2nc2c(NCCCCNC(=O)/C=C/c3cccc(F)c3)cc(OC)cc12 |  |  | 5.21 | 11.5 |  | > 3.8 | > 4.3 | Non-Toxic | > 9.6 | > 50 | 13 | Active
COc1cc(NCCCCNC(=O)/C=C/c2ccc(C(F)(F)F)cc2)c2nc3cc(Cl)ccc3cc2c1 | Non-Toxic | inactive |  |  |  |  |  |  |  |  |  | 
COc1cc(NCCCCNC(=O)/C=C/c2cccc(Br)c2)c2nc3cc(Cl)ccc3cc2c1 | Non-Toxic | inactive |  |  |  |  |  |  |  |  |  | 
CCN(CC)CCCC(C)Nc1c2ccc(Cl)cc2nc2c(NCCCCNC(=O)/C=C/c3cccc(F)c3)cc(OC)cc12 (stereo not drawn) |  |  | 5.06 | 12.9 |  | > 3.9 | > 3.9 | Non-Toxic | > 9.9 | > 50 | 12.7 | Active
